Data as given in ChEMBL document CHEMBL3817837, “Targeting epigenetic reader and eraser: Rational design, synthesis and in vitro evaluation of dimethylisoxazoles derivatives as BRD4/HDAC dual inhibitors” (Bioorg Med Chem Lett, 2016).

What was measured:
K562 = test: Antiproliferative activity against human K562 cells assessed as reduction in cell viability incubated for 72 hrs by Alamar blue assay; assay type: functional, cell-based; settings: K562, 72 h
MV4-11 = test: Antiproliferative activity against human MV4-11 cells assessed as reduction in cell viability incubated for 72 hrs by Alamar blue assay; assay type: functional, cell-based; settings: MV4-11, 72 h
Histone deacetylase 1 = Histone deacetylase 1 (Homo sapiens, UniProt Q13547); test: Inhibition of recombinant HDAC1 (unknown origin) using of Fluor-de-Lys substrate incubated for 10 mins by fluorimetric assay
[1] = target: T1, Bromodomain-containing protein 4 (Homo sapiens, UniProt O60885); test: Inhibition of human BRD4 expressed in Escherichia coli BL21(DE3)-R3-pRARE2 by bromodomain alphascreen peptide displacement assay
[2] = target: T2, Bromodomain-containing protein 9 (Homo sapiens) (UniProt Q9H8M2); test: Binding affinity to human BRD9 expressed in Escherichia coli BL21(DE3)-R3-pRARE2 assessed as change in melting temperature at 25 uM by SYPRO orange based protein stability shift assay
T2 sequence (whole entry): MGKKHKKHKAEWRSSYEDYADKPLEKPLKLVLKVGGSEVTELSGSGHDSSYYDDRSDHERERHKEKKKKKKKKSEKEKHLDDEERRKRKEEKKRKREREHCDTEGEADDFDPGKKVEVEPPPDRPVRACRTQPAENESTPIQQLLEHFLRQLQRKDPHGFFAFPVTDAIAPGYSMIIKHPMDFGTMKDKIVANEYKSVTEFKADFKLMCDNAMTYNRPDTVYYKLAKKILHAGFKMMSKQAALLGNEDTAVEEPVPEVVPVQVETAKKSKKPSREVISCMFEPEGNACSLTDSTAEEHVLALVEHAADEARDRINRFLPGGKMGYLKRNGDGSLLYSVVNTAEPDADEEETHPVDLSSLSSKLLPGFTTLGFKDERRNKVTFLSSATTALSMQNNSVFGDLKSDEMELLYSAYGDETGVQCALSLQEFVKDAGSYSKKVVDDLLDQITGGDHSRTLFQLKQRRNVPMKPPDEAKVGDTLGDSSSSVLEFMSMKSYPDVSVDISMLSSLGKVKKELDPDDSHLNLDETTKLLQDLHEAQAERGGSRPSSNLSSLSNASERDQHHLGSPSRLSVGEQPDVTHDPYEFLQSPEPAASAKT

[3] = target: CREB-binding protein (Homo sapiens) (UniProt Q92793); test: Binding affinity to human CREBBP expressed in Escherichia coli BL21(DE3)-R3-pRARE2 assessed as change in melting temperature at 25 uM by SYPRO orange based protein stability shift assay
[4] = target: Histone acetyltransferase KAT2B (Homo sapiens) (UniProt Q92831); test: Binding affinity to human PCAF expressed in Escherichia coli BL21(DE3)-R3-pRARE2 assessed as change in melting temperature at 25 uM by SYPRO orange based protein stability shift assay
[5] = target: Transcription initiation factor TFIID subunit 1 (Homo sapiens) (UniProt P21675); test: Binding affinity to human TAF1 expressed in Escherichia coli BL21(DE3)-R3-pRARE2 assessed as change in melting temperature at 25 uM by SYPRO orange based protein stability shift assay
[6] = target: T1, Bromodomain-containing protein 4
Description: Binding affinity to human BRD4 expressed in Escherichia coli BL21(DE3)-R3-pRARE2 assessed as change in melting temperature at 25 uM by SYPRO orange based protein stability shift assay

[7] = target: Chromatin remodeling regulator CECR2 (Homo sapiens) (UniProt Q9BXF3); test: Binding affinity to human CECR2 expressed in Escherichia coli BL21(DE3)-R3-pRARE2 assessed as change in melting temperature at 25 uM by SYPRO orange based protein stability shift assay

Chain of CREB-binding protein (Homo sapiens) (Q92793 2-2442 limits assumed): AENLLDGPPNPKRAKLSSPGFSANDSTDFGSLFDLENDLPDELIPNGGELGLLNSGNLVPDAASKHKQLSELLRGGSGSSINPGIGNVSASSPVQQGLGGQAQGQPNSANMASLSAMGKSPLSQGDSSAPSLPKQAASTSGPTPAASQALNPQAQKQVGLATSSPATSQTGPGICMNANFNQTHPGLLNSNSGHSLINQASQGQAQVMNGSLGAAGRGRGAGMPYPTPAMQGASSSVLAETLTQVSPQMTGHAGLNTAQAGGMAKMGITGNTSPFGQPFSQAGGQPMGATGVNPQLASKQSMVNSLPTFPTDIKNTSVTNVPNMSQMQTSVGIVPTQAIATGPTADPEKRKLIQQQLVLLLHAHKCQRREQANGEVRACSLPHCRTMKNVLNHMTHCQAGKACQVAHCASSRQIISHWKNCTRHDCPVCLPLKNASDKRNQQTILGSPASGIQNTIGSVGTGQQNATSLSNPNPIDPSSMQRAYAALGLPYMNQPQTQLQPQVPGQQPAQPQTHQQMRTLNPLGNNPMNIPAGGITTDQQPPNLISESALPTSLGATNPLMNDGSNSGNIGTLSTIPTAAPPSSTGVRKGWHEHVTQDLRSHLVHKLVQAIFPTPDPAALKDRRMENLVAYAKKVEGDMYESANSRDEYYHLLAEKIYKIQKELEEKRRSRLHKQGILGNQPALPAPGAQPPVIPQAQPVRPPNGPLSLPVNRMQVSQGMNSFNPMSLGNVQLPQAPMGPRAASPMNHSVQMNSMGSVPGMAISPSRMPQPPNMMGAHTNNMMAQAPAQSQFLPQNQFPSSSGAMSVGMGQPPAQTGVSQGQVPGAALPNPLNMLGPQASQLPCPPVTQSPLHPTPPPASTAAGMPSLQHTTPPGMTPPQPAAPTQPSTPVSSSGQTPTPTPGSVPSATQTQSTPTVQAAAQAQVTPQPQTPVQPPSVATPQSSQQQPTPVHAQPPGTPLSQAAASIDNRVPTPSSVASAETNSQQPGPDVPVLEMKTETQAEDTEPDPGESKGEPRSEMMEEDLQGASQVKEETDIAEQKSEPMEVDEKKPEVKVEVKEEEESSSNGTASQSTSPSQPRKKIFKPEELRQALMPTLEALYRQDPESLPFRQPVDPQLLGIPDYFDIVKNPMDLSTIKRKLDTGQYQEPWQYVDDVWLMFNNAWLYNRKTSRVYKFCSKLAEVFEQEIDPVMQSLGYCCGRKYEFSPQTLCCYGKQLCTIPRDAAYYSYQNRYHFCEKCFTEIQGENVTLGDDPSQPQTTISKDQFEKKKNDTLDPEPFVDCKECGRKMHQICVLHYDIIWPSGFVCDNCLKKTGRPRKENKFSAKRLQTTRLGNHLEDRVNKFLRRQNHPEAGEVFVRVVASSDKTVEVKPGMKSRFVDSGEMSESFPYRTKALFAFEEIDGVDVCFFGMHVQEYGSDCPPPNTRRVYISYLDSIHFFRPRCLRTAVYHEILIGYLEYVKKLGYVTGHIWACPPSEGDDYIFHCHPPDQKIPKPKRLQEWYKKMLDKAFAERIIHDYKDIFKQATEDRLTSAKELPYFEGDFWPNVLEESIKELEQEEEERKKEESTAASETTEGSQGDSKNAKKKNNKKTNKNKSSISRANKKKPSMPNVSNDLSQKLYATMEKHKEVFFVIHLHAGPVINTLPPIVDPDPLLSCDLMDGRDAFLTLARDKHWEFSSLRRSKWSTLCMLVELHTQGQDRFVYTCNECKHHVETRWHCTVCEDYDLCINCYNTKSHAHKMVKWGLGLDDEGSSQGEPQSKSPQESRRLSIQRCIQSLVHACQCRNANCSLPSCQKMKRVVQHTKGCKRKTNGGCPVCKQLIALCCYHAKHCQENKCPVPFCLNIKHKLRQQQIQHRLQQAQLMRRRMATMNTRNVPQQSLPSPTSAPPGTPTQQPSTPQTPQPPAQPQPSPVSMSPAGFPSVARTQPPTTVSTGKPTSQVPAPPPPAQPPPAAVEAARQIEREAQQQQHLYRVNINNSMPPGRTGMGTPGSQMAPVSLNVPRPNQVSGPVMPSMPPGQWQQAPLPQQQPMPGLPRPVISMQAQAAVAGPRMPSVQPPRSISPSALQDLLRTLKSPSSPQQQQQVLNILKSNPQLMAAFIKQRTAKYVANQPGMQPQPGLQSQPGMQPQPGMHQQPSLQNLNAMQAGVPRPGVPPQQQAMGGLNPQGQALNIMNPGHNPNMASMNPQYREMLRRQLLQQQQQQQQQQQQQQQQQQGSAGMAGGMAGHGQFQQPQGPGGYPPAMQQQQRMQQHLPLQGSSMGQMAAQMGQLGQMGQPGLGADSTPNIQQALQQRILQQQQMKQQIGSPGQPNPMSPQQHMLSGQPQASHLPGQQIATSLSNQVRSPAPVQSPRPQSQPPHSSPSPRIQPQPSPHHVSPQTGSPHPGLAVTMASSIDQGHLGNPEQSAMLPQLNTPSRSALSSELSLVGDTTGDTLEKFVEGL
Chain of Transcription initiation factor TFIID subunit 1 (Homo sapiens) (P21675 whole entry): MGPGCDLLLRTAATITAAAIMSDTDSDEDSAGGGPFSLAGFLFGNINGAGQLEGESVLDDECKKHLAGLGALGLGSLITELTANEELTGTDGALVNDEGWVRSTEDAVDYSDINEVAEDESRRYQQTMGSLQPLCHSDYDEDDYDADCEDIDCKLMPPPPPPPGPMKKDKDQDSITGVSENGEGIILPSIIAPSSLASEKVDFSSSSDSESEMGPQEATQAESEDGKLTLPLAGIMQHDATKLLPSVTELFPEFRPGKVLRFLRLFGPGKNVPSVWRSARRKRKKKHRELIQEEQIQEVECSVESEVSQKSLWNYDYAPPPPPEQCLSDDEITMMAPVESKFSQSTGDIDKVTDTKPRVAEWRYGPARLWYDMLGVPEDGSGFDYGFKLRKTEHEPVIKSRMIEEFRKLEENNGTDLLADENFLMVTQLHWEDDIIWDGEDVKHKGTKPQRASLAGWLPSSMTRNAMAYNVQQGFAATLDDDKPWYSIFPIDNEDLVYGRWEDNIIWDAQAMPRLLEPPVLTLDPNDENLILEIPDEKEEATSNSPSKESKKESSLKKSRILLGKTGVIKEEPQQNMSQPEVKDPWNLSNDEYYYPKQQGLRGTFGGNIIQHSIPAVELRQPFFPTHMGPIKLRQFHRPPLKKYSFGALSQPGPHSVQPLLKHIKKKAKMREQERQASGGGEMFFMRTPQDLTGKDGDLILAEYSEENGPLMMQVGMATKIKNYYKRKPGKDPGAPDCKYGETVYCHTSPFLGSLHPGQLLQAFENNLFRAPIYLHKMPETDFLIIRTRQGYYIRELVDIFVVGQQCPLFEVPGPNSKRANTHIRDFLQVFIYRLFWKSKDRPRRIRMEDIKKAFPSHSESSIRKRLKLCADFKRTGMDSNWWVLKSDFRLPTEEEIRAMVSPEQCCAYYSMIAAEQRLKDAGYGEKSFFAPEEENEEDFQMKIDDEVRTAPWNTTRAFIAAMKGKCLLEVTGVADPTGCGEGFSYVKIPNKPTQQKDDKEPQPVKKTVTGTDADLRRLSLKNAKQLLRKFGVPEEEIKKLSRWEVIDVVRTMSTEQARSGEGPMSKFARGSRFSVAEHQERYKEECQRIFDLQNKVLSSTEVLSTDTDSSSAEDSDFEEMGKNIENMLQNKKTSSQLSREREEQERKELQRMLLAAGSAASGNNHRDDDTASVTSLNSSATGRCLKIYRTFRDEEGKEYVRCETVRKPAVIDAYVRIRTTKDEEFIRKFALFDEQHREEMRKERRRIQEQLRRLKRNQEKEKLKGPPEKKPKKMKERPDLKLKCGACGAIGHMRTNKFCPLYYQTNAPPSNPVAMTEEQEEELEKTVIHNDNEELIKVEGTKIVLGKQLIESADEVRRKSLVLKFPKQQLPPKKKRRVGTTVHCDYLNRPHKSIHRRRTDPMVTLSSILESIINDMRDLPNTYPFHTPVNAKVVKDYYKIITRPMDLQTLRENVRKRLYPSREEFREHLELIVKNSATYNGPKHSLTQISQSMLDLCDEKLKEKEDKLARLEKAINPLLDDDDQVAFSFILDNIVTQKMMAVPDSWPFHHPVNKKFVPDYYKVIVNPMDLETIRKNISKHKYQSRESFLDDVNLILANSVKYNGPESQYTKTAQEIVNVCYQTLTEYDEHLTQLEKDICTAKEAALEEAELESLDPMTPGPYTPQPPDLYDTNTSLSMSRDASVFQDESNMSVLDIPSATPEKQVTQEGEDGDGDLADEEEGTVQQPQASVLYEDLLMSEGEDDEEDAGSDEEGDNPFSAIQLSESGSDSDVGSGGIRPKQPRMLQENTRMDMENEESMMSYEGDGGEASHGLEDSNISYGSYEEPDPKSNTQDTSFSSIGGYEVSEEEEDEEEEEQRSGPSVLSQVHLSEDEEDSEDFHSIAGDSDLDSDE
Chain of Histone deacetylase 1 (Q13547 whole entry): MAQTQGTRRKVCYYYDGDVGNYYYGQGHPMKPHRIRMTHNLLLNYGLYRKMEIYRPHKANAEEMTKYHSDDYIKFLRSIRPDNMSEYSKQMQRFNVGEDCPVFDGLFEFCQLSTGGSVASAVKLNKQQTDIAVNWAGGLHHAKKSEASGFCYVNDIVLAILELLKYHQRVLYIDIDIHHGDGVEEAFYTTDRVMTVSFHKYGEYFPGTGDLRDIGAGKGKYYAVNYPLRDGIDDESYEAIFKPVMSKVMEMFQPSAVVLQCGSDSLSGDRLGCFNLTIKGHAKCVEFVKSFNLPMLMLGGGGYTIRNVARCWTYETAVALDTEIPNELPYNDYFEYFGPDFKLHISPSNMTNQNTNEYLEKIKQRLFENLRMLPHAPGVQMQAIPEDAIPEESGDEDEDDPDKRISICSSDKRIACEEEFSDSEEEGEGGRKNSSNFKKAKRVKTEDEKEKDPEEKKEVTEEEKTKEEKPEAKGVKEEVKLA

| Structure (SMILES) | IC50 (K562) [nM] | IC50 (MV4-11) [nM] | IC50 (Histone deacetylase 1) [nM] | IC50 [1] [nM] | ΔTm [2] [°C] | ΔTm [3] [°C] | ΔTm [4] [°C] | ΔTm [5] [°C] | ΔTm [6] [°C] | ΔTm [7] [°C] |
| --- | --- | --- | --- | --- | --- | --- | --- | --- | --- | --- |
| Cc1sc2c(c1C)C(c1ccc(Cl)cc1)=N[C@@H](CC(=O)OC(C)(C)C)c1nnc(C)n1-2 (racemic) | 640 | 240 | – | – | – | – | – | – | – | – |
| Cc1noc(C)c1-c1cc(OCCCCC(=O)NO)cc(C(=O)c2ccccc2)c1 | – | – | 5450 | 1490 | -0.75 | -0.01 | -7.9 | 1.14 | 5.89 | – |
| Cc1noc(C)c1-c1cccc(NC(=O)CCCCCC(=O)NO)c1 | – | – | 360 | 3730 | -0.13 | 0.73 | 0.05 | 1.08 | 3.58 | 0.64 |
| O=C(CCCCCCC(=O)Nc1ccccc1)NO [VORINOSTAT] | 170 | – | – | – | – | – | – | – | – | – |
| Cc1noc(C)c1-c1cc(NC(=O)CCCCC(=O)NO)cc(C(=O)c2ccccc2)c1 | – | – | 760 | 780 | 2.79 | 2.05 | 0.31 | 1.95 | 6.21 | 1.65 |
| Cc1noc(C)c1-c1cc(OCCCCCCC(=O)NO)cc(C(O)c2ccccc2)c1 (configuration not stated) | – | – | 970 | 770 | 1.55 | 4.03 | 0.35 | 1.72 | 7.53 | 1.32 |
| Cc1noc(C)c1-c1cc(NC(=O)CCCCCC(=O)NO)cc(C(=O)c2ccccc2)c1 | 2330 | 1040 | 270 | 850 | 2.26 | 2.32 | 0.92 | 1.76 | 6.37 | 1.52 |
| Cc1noc(C)c1-c1cc(OCCCCCCCC(=O)NO)cc(C(=O)c2ccccc2)c1 | – | – | 1740 | 2990 | 1.22 | 0.65 | -0.31 | 1.77 | 4.91 | 2.06 |
| Cc1noc(C)c1-c1cc(OCCCCCCC(=O)NO)cc(C(=O)c2ccccc2)c1 | – | – | 1430 | 1050 | 1.72 | 2.13 | 1.04 | 2.22 | 7.41 | – |
| Cc1noc(C)c1-c1cc(OCCCCCC(=O)NO)cc(C(=O)c2ccccc2)c1 | – | – | 1490 | 1380 | 1.56 | 1.69 | 0.28 | 1.69 | 7.54 | 1.18 |
| Cc1noc(C)c1-c1cc(NC(=O)CCCCCCC(=O)NO)cc(C(=O)c2ccccc2)c1 | 1860 | 910 | 150 | 670 | 2.97 | 3.24 | 1.35 | 2.22 | 7.49 | 1.96 |
